Assay results published in patent US9120770B2, “Substituted pyridine and pyrazine compounds as PDE4 inhibitors” (DART NEUROSCIENCE (CAYMAN) LTD., priority 2013, dated 2015).

Each molecule was assayed against PDE4D3 (Homo sapiens, UniProt Q08499).
Sequence of PDE4D3 (Q08499 1-673 isoform Q08499-2): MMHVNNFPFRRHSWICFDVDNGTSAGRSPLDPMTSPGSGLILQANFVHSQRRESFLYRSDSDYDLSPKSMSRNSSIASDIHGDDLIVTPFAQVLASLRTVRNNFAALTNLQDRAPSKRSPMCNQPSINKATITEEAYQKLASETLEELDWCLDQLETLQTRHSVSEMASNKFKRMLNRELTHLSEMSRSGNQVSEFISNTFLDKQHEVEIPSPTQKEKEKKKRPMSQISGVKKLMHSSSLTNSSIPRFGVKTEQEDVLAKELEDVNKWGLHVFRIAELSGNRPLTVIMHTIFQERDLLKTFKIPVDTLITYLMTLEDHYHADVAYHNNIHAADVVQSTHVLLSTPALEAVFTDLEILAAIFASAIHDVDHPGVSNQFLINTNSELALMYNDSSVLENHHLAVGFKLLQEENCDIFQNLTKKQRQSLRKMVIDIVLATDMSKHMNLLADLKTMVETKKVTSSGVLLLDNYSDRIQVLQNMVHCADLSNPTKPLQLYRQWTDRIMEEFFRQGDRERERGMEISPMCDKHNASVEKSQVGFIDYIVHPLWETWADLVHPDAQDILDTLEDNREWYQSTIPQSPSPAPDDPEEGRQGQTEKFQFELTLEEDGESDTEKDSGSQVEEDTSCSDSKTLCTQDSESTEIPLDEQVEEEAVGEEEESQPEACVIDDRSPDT

EC50 [nM] | SMILES
< 100 | COc1ncc(Cc2cnc(OC(F)F)c(-c3cccc(Cl)c3)c2)cn1 [Example 92, 5-{[5-(3-Chlorophenyl)-6-(difluoromethoxy)pyridin-3-yl]methyl}-2-methoxypyrimidine]
< 100 | CCOc1ncc(Cc2cnc(C#N)nc2)nc1-c1cccc(OC(F)F)c1 [Example 1, 5-({6-[3-(Difluoromethoxy)phenyl]-5-ethoxypyrazin-2-yl}methyl)pyrimidine-2-carbonitrile]
< 100 | Cc1ccc(Cc2cnc(OC(F)F)c(-c3cccc(Cl)c3)c2)cn1 [Example 72, 3-(3-Chlorophenyl)-2-(difluoromethoxy)-5-[(6-methylpyridin-3-yl)methyl]pyridine]
100 to 1000 | COc1ncc(Cc2cnc(Cl)nc2)cc1-c1cccc(Cl)c1 [Example 2, 2-Chloro-5-{[5-(3-chlorophenyl)-6-methoxypyridin-3-yl]methyl}pyrimidine]
< 100 | COc1ncc(Cn2cnc(C)n2)cc1-c1cccc(Cl)c1 [Example 143, 3-(3-Chlorophenyl)-2-methoxy-5-[(3-methyl-1H-1,2,4-triazol-1-yl)methyl]pyridine]
1000 to 10000 | COc1ncc(Cn2cnnc2C)cc1-c1cccc(Cl)c1 [Example 138, 3-(3-Chlorophenyl)-2-methoxy-5-[(3-methyl-4H-1,2,4-triazol-4-yl)methyl]pyridine]
< 100 | COc1ncc(Cc2cnc(N)nc2)nc1-c1cccc(Cl)c1 [Example 87, 5-{[6-(3-Chlorophenyl)-5-methoxypyrazin-2-yl]methyl}pyrimidin-2-amine]
100 to 1000 | CCOc1ncc(Cn2cc(Cl)c(CO)n2)cc1-c1cccc(Cl)c1 [Example 277, (4-Chloro-1-{[5-(3-chlorophenyl)-6-ethoxypyridin-3-yl]methyl}-1H-pyrazol-3-yl)methanol]
100 to 1000 | FC(F)Oc1ncc(Cc2cnc(NC3CC3)nc2)cc1-c1cccc(Cl)c1 [Example 91, 5-{[5-(3-Chlorophenyl)-6-(difluoromethoxy)pyridin-3-yl]methyl}-N-cyclopropylpyrimidin-2-amine]
1000 to 10000 | COc1ncc(Cc2cnc(C(=O)O)nc2)cc1-c1cccc(Cl)c1 [Example 23, 5-{[5-(3-Chlorophenyl)-6-methoxypyridin-3-yl]methyl}pyrimidine-2-carboxylic acid]
1000 to 10000 | NC(=O)c1cncc(Cc2cnc(OC(F)F)c(-c3cccc(Cl)c3)c2)c1 [Example 70, 5-{[5-(3-Chlorophenyl)-6-(difluoromethoxy)pyridin-3-yl]methyl}pyridine-3-carboxamide]
< 100 | CCOc1cccc(-c2cc(Cn3cnc(CO)n3)cnc2OC(F)F)c1 [Example 204, (1-{[6-(Difluoromethoxy)-5-(3-ethoxyphenyl)pyridin-3-yl]methyl}-1H-1,2,4-triazol-3-yl)methanol]
< 100 | COc1ncc(Cn2cnc(N)n2)cc1-c1ccnc(OC(F)F)c1 [Example 229, 1-({5-[2-(Difluoromethoxy)pyridin-4-yl]-6-methoxypyridin-3-yl}methyl)-1H-1,2,4-triazol-3-amine]
100 to 1000 | COc1ncc(Cc2ccc(C(C)(C)O)cc2)cc1-c1cccc(Cl)c1 [Example 250, 2-(4-{[5-(3-Chlorophenyl)-6-methoxypyridin-3-yl]methyl}phenyl)propan-2-ol]

Continued, molecule first:

SMILES | EC50 [nM]
Nc1ncn(Cc2cnc(OC(F)F)c(-c3ccnc(OC(F)F)c3)c2)n1 [Example 231, 1-{[6-(Difluoromethoxy)-5-[2-(difluoromethoxy)pyridin-4-yl]pyridin-3-yl]methyl}-1H-1,2,4-triazol-3-amine] | 100 to 1000
COCc1ncn(Cc2cnc(OC(F)F)c(-c3cccc(Cl)c3)c2)n1 [Example 157, 3-(3-Chlorophenyl)-2-(difluoromethoxy)-5-{[3-(methoxymethyl)-1H-1,2,4-triazol-1-yl]methyl}pyridine] | 100 to 1000
COc1ncc(Cn2ccc(N)n2)cc1-c1cccc(OC(F)F)c1 [Example 232, 1-({5-[3-(Difluoromethoxy)phenyl]-6-methoxypyridin-3-yl}methyl)-1H-pyrazol-3-amine] | < 100
COc1ncc(Cn2ccnc2)nc1-c1cccc(Cl)c1 [Example 183, 3-(3-Chlorophenyl)-5-(1H-imidazol-1-ylmethyl)-2-methoxypyrazine] | < 100
COc1ncc(Cc2cncs2)cc1-c1cccc(Cl)c1 [Example 65, 3-(3-Chlorophenyl)-2-methoxy-5-(1,3-thiazol-5-ylmethyl)pyridine] | < 100
CCOc1ncc(Cc2ccc(C#N)nc2)nc1-c1cccc(OC(F)F)c1 [Example 103, 5-({6-[3-(Difluoromethoxy)phenyl]-5-ethoxypyrazin-2-yl}methyl)pyridine-2-carbonitrile] | < 100
CCOc1ncc(Cc2cnc(C(N)=O)nc2)cc1-c1ccnc(OC(F)F)c1 [Example 122, 5-({5-[2-(Difluoromethoxy)pyridin-4-yl]-6-ethoxypyridin-3-yl}methyl)pyrimidine-2-carboxamide] | < 100
COCc1ncnn1Cc1cnc(OC(F)F)c(-c2cccc(Cl)c2)c1 [Example 158, 3-(3-Chlorophenyl)-2-(difluoromethoxy)-5-{[5-(methoxymethyl)-1H-1,2,4-triazol-1-yl]methyl}pyridine] | 1000 to 10000
COc1ncc(C(C)(O)c2ccc(F)cc2)cc1-c1cccc(Cl)c1 (centres unmarked) [Example 15, 1-[5-(3-Chlorophenyl)-6-methoxypyridin-3-yl]-1-(4-fluorophenyl)ethan-1-ol] | 1000 to 10000
COc1ncc(Cn2cncn2)cc1-c1cn[nH]c1 [Example 242, 2-Methoxy-3-(1H-pyrazol-4-yl)-5-(1H-1,2,4-triazol-1-ylmethyl)pyridine] | > 10000
COc1ncc(Cn2cccn2)cc1-c1cccc(Cl)c1 [Example 145, 3-(3-Chlorophenyl)-2-methoxy-5-(1H-pyrazol-1-ylmethyl)pyridine] | < 100
COc1cccc(-c2cc(Cn3cnc(N)n3)cnc2OC)c1 [Example 221, 1-{[6-Methoxy-5-(3-methoxyphenyl)pyridin-3-yl]methyl}-1H-1,2,4-triazol-3-amine] | 100 to 1000
CCOc1ncc(Cn2cc(CO)nn2)nc1-c1cccc(OC(F)F)c1 [Example 265, [1-({6-[3-(Difluoromethoxy)phenyl]-5-ethoxypyrazin-2-yl}methyl)-1H-1,2,3-triazol-4-yl]methanol] | 100 to 1000
COc1ncc(Cn2cc(C#N)cn2)cc1-c1cccc(Cl)c1 [Example 170, 1-{[5-(3-Chlorophenyl)-6-methoxypyridin-3-yl]methyl}-1H-pyrazole-4-carbonitrile] | 100 to 1000
COc1cccc(-c2cc(Cc3cnc(N)nc3)cnc2OC(F)F)c1 [Example 29, 5-{[6-(Difluoromethoxy)-5-(3-methoxyphenyl)pyridin-3-yl]methyl}pyrimidin-2-amine] | < 100
COc1ncc(Cn2cnc(C)n2)cc1-c1cccc(F)c1 [Example 151, 3-(3-Fluorophenyl)-2-methoxy-5-[(3-methyl-1H-1,2,4-triazol-1-yl)methyl]pyridine] | < 100
COc1ncc(Cc2cnoc2)cc1-c1cccc(Cl)c1 [Example 96, 3-(3-Chlorophenyl)-2-methoxy-5-(1,2-oxazol-4-ylmethyl)pyridine] | 100 to 1000
Cc1cn(Cc2cnc(OC(F)F)c(-c3cccc(Cl)c3)c2)cn1 [Example 154, 3-(3-Chlorophenyl)-2-(difluoromethoxy)-5-[(4-methyl-1H-imidazol-1-yl)methyl]pyridine] | 100 to 1000
CNc1ncc(Cc2cnc(OC)c(-c3cccc(Cl)c3)c2)cn1 [Example 81, 5-{[5-(3-Chlorophenyl)-6-methoxypyridin-3-yl]methyl}-N-methylpyrimidin-2-amine] | 100 to 1000
COc1ncc(Cc2cnc(OC)c(-c3cccc(Cl)c3)c2)cn1 [Example 76, 5-{[5-(3-Chlorophenyl)-6-methoxypyridin-3-yl]methyl}-2-methoxypyrimidine] | < 100
CCOc1ncc(Cc2cnc(C(N)=O)nc2)cc1-c1cccc(OC(F)F)c1 [Example 119, 5-({5-[3-(Difluoromethoxy)phenyl]-6-ethoxypyridin-3-yl}methyl)pyrimidine-2-carboxamide] | < 100
COc1ncc(Cn2cc([N+](=O)[O-])cn2)nc1-c1cccc(Cl)c1 [Example 181, 3-(3-Chlorophenyl)-2-methoxy-5-[(4-nitro-1H-pyrazol-1-yl)methyl]pyrazine] | 1000 to 10000
CCOc1ncc(Cn2cnc(C)n2)nc1-c1cccc(OC(F)F)c1 [Example 185, 3-[3-(Difluoromethoxy)phenyl]-2-ethoxy-5-[(3-methyl-1H-1,2,4-triazol-1-yl)methyl]pyrazine] | < 100
COc1ncc(Cn2cnc(CF)n2)nc1-c1cccc(Cl)c1 [Example 258, 3-(3-Chlorophenyl)-5-{[3-(fluoromethyl)-1H-1,2,4-triazol-1-yl]methyl}-2-methoxypyrazine] | 1000 to 10000
COc1ncc(Cn2cc(C)cn2)cc1-c1cccc(Cl)c1 [Example 179, 3-(3-Chlorophenyl)-2-methoxy-5-[(4-methyl-1H-pyrazol-1-yl)methyl]pyridine] | 100 to 1000
COc1ncc(Cc2cnc(NCC(F)(F)F)nc2)cc1-c1cccc(Cl)c1 [Example 84, 5-{[5-(3-Chlorophenyl)-6-methoxypyridin-3-yl]methyl}-N-(2,2,2-trifluoroethyl)pyrimidin-2-amine] | < 100
CCOc1ncc(Cc2cnc(N)nc2)cc1-c1cccc(Cl)c1 [Example 40, 5-{[5-(3-Chlorophenyl)-6-ethoxypyridin-3-yl]methyl}pyrimidin-2-amine] | < 100
COc1ncc(Cn2cncn2)cc1-c1cccc(C)n1 [Example 11, 2-Methoxy-3-(6-methylpyridin-2-yl)-5-(1H-1,2,4-triazol-1-ylmethyl)pyridine] | > 10000
CCOc1ncc(Cn2cnc(CO)n2)cc1-c1cccc(OC(F)F)c1 [Example 201, [1-({5-[3-(Difluoromethoxy)phenyl]-6-ethoxypyridin-3-yl}methyl)-1H-1,2,4-triazol-3-yl]methanol] | < 100
CCOc1ncc(Cc2cnc(C#N)nc2)nc1-c1cccc(Cl)c1 [Example 108, 5-{[6-(3-Chlorophenyl)-5-ethoxypyrazin-2-yl]methyl}pyrimidine-2-carbonitrile] | 100 to 1000
